{
  "source": "patent US9464056B2",
  "about": "“Fungicidal 4-methylanilino pyrazoles” (E. I. DU PONT DE NEMOURS AND COMPANY, priority 2012, dated 2016)",
  "type_in_all_cases": "in vivo",
  "key": {"Septoria nodorum": {"test_system": "Septoria nodorum", "test": "Test C: preventive spray on wheat seedlings, Septoria nodorum (Septoria glume blotch), visual disease rating", "conditions": "Parastagonospora nodorum, topical, 264 h, 100 = 100% disease control, 0 = no disease control relative to controls", "description": "(§1) General protocol for preparing test suspensions for Tests A-H: the test compounds were first dissolved in acetone in an amount equal to 3% of the final volume and then suspended at the desired concentration (in ppm) in acetone and purified water (50/50 mix by volume) containing 250 ppm of the surfactant Trem® 014 (polyhydric alcohol esters). The resulting test suspensions were then used in Tests A-F. Spraying a 40 ppm test suspension to the point of run-off on the test plants was the equivalent of a rate of 160 g/ha. Unless otherwise indicated, the rating values indicate a 40 ppm test suspension was used. The test suspension was sprayed to the point of run-off on wheat seedlings. The following day the seedlings were inoculated with a spore suspension of Septoria nodorum (the causal agent of Septoria glume blotch) and incubated in a saturated atmosphere at 20° C. for 48 h, and then moved to a growth chamber at 20° C. for 9 days, after which time visual disease ratings were made. Results for Tests A-F are given in Table A. In the Table, a rating of 100 indicates 100% disease control and a rating of 0 indicates no disease control (relative to the controls). A dash (-) indicates no test results."}, "[1]": {"test": "Single oral dose pharmacokinetics in rats, plasma and fat analysed by LC/MS (fat:plasma ratio)", "conditions": "vertebrate animals (rats), single oral gavage dose; compared to corresponding analogs", "description": "The pharmacokinetic properties of compounds of Formula 1 can be measured using a wide variety of assay protocols known in the science of pharmacology. In one illustrative method involving a single oral dose, three male and three female rats receive a single dose of a test substance via oral gavage. Approximately 0.25 mL of blood is collected via tail vein immediately prior to dosing, and then at 0.25, 0.5, 1, 2, 4, 8, 12, 24 h and every 24 h thereafter until sacrifice. At sacrifice, fat is also collected to determine the fat:plasma ratio at sacrifice. […] After removal of the proteins, the plasma is analyzed for parent compound and/or metabolites by liquid chromatography-mass spectrometry (LC/MS). […] The extract is then analyzed for parent compound and/or metabolites by LC/MS. The plasma pharmacokinetic data is then analyzed using nonlinear modeling software (e.g., WinNonlin™ from Pharsight, Cary, N.C., U.S.A.) to determine half-life of the administered compound in plasma, the time after administration when the maximum plasma concentration is reached (Tmax), the maximum plasma concentration (Cmax) and the area under the plasma concentration curve (AUC). […] However, by using multiple rats sacrificed after different intervals from time of dosing, such parameters as Cmax for fat are determined."}, "[2]": {"test_system": "Puccinia recondita f. sp. tritici", "test": "Test E2: preventive spray on wheat seedlings, Puccinia recondita f. sp. tritici (wheat leaf rust), visual disease rating", "conditions": "topical, 192 h, 100 = 100% disease control, 0 = no disease control relative to controls", "description": "as §1, with “Puccinia recondita f. sp. tritici” for “Septoria nodorum”, “wheat leaf rust)” for “Septoria glume blotch)”, “24” for “48”, “7” for “9”"}},
  "data": [
    {"smiles": "Cc1cc(F)c(Nc2c(-c3ccc(F)cc3Cl)c(C)nn2C)c(Br)c1", "note": "[Compound 1, N-(2-bromo-6-fluoro-4-methylphenyl)-4-(2-chloro-4-fluorophenyl)-1,3-dimethyl-1H-pyrazol-5-amine]", "values": [
      {"measurement": "pest or weed control at 40 µg/mL", "setting": "Septoria nodorum", "value": 90, "unit": "%"},
      {"measurement": "distribution into fat", "setting": "[1]", "value": "significantly diminished distribution into fat"},
      {"measurement": "pest or weed control at 40 µg/mL", "setting": "[2]", "value": 100, "unit": "%"}
    ]}
  ]
}
